# Measurements taken from a melting point compilation (Tetko et al.; mined from patent text by program, amines drawn as free bases though some values may be those of a salt).
row,SMILES,melting point
1,NC(=O)c1c(Cl)ccc(Br)c1Cl,117 to 119 °C
2,CCSc1c(C=O)c(=O)n(C)c(=O)n1C,72 °C
3,COc1ccc2c(c1)C(=O)OC21CCN(C)CC1,123 to 125 °C
4,CCCCCN(CCC12CC3CC(CC(C3)C1)C2)C(=O)NCCc1ccc(O)cc1,96.3 to 99.4 °C
5,CC(=O)Oc1ccc(C(=O)c2cccc(OC(C)=O)c2)cc1,81 to 83 °C
6,COc1ccc(CNc2cc3c(Nc4ccc5c(cnn5Cc5cccc(F)c5)c4)ncnc3cn2)cc1,196 to 198 °C
7,C[C@@H](NC(=O)c1cnn(-c2ccc(C(F)(F)F)cc2)c1C(F)(F)F)[C@](O)(Cn1cncn1)c1ccc(F)cc1F,141 to 143 °C
8,O=C(O)c1ccc(CN([C@@H](CO)c2ccccc2)S(=O)(=O)c2ccc(Cl)cc2)cc1,85 to 87 °C
9,CCOC(=O)C1CSCCN1C(=O)Nc1ccc(Cl)cc1F (stereo unspecified),112 °C
10,CC1(c2cccc(NS(C)(=O)=O)c2)C2CN(Cc3ccccc3)CC21 (stereo unspecified),117 to 118 °C
11,CSc1ccc2ccc3c(SC)cc(SC)c4ccc1c2c34,235 to 240 °C
12,C#CCOc1ccc2cc(C(=O)OCC)c(=O)oc2c1,252 °C
13,CC(C)(C)NC(=O)c1nn(-c2ccc(Br)cc2)c2c1[C@@H]1CC[C@H]2C1,148 to 149 °C
14,Cn1c(C(F)(F)F)cc(=O)n(-c2cc(C=O)c(Cl)cc2Cl)c1=O,117 to 120 °C
15,c1ccc(N2CNCC23CCN(C2CCc4ccccc42)CC3)cc1 (racemic),> 250 °C
16,COc1cc(COc2nn(-c3ccccc3)cc2C#N)ccc1OCc1nc(-c2ccco2)oc1C,167 to 168 °C
17,COc1cc2nc(-c3ccccn3)nc(N)c2cc1OC,248 to 251 °C
18,CCOC(=O)C1=C(C)NC(c2ccc([N+](=O)[O-])cc2)=C(C(=O)OCC)C1c1cccc([N+](=O)[O-])c1 (stereo unspecified),176 to 177 °C
19,CN1CCN(c2nc(N)c3cc(Cl)ccc3n2)CC1,176 to 178 °C
20,O=c1oc(/C=C/c2ccc(OC(F)F)c(OC(F)F)c2)nc2ccccc12,113 to 115 °C
21,CCCc1ccc2c(c1)C1(O)C(=O)c3ccccc3C1(O)O2 (stereo unspecified),126 to 127 °C
22,CCSC1=NCC(=O)N1c1ccc(F)cc1,114 to 115 °C
23,CCCC12CCC3C4=C(CCC3C1CCC2O)CC(OC)=CC4 (stereo unspecified),153 to 156 °C

row,SMILES,melting point
1,COc1ccc(Cl)cc1C(=O)N(CCCC(=O)O)C(c1ccccc1)c1ccccc1,176 to 178 °C
2,N#Cc1c(N2CCCCC2)cc(-c2ccccc2)c2c1C(=O)c1ccccc1-2,220 to 222 °C
3,CCCCN(Cc1ccc(-c2ccccc2-c2nnnn2C(c2ccccc2)(c2ccccc2)c2ccccc2)cc1)c1ncccc1C(=O)OCC,90 to 94 °C
4,Nc1ncnc2c1ncn2Cc1oc2ccccc2c(=O)c1-c1cccc(F)c1,224 to 227 °C
5,FC(F)(F)c1n[nH]c2c1nc(-c1ccccc1)c1ccccc12,264 to 265 °C
6,C=C(c1cc(F)ccc1OCc1ccc(-c2ccccc2)cc1)n1ccnc1,97 to 98 °C
7,Cc1csc2c1c(N1CCN(C(=O)c3cccs3)CC1)c(C#N)c(=O)n2Cc1ccccc1,223 °C
8,CC1(C)OC(=S)Nc2ccc(-c3cccc(Br)c3)cc21,191 to 193 °C
9,CCCCCCCc1ccc(C(=O)Cc2cccc(C#N)c2)cc1,68 °C
10,CCOc1ccc(C(=O)Nc2c(Cl)cncc2Cl)c2c3ccccc3n(Cc3ccccc3)c12,210 to 213 °C
11,O=c1c(Cc2ccc(-c3ccccc3)cc2)coc2cc(OS(=O)(=O)C(F)(F)F)ccc12,110 °C
12,COc1cc2c(cc1OC)N(C)C(=O)CN=C2c1cccc(CO)c1,143 to 146 °C
13,N#CC(NC(=O)c1cccn2c(Cl)cnc12)c1ccco1 (stereo unspecified),142 to 143 °C
14,CCOC(=O)c1cn(CCF)c2nc(S(=O)(=O)CC)c(F)cc2c1=O,176 to 178 °C
15,CCOC(=O)CCc1ccc2cc(O)ccc2c1,90 to 91 °C
16,CCOc1cc(C(=O)O)cc(N)c1-c1ccccc1,138 °C
17,O=C(O)C=CC(F)(F)F,95 to 100 °C
18,O=C(O)c1cccc(Oc2ccccc2Cl)c1[N+](=O)[O-],185 to 187 °C
19,CC(C)n1nc(-c2ccc(N)nc2-c2ccccc2)ccc1=O,167 to 171 °C
20,CCOC(=O)C(C(=O)COC(C)C)C1c2ccccc2C(=O)N1c1ccc2ccc(Cl)nc2n1 (stereo unspecified),205 °C
21,OC1(c2ccccc2Cc2ccccc2)CCC2(CC1)OCCO2,97 to 98 °C
22,Cc1nc(N2CCN(CC(C)C)C2=O)sc1C(=O)NCc1ccn(C)n1,158 to 161 °C

# More lines, now with the values ahead:
row,melting point,SMILES
1,155 to 156 °C,O=c1oc2ccc(-c3ccc(F)cc3F)cc2c(=O)n1-c1ccc(F)cc1F
2,154 to 156 °C,CSc1sc(-c2cccnc2)c2c1C(=O)C(=CO)C(C)(C)C2
3,185 to 186 °C,c1ccc(CSc2nc3ccccc3[nH]2)cc1
4,116 to 118 °C,CC(O)COc1ccc(-c2ccc(C(CC3CCOCC3)c3ccc(S(=O)(=O)C4CC4)cc3)[nH]2)nc1 (stereo unspecified)
5,150 to 153 °C,O=C1NCCCN1C1CCN(CC(O)COc2ccccc2Cl)CC1 (stereo unspecified)
6,190 to 192 °C,COc1cc(N2CCN([C@H]3CC[C@@H](c4cn(C)c5ccc(C#N)cc54)CC3)CC2)c2ncc(C)cc2c1
7,109 °C,Cc1cc(C)c(S(=O)(=O)OCCCCOS(=O)(=O)c2c(C)cc(C)cc2C)c(C)c1
8,114 °C,COc1ccc(C2=NN(C3CCN(S(=O)(=O)Cc4ccccc4)CC3)C(=O)CC2)cc1OC
9,171 °C,COc1ccc2ccccc2c1OP(=O)(O)O
10,45 to 47 °C,CSc1nc(Cl)c(Cl)nc1Cl
11,190 to 191 °C,COc1ccc(-c2ncc3n2CNc2ccccc2-3)cc1
12,194 to 195 °C,ClCc1coc(-c2ccc3oc(-c4ccccc4)nc3c2)n1
13,122 to 125 °C,CCCCOCCOc1ccc(-c2ccc3c(c2)C=C(C(=O)Nc2ccc(C(O)c4ccccn4)c(C)c2)CCN3C(=O)C(F)(F)F)cc1 (stereo unspecified)
14,219 to 220 °C,CC(C)n1nc(-c2c(-c3ccccc3)nn3ccc(N4CCN(S(C)(=O)=O)CC4)cc23)ccc1=O
15,119 to 121 °C,O=C(O)CCCCCc1nn(-c2ccc([N+](=O)[O-])cc2)c2c1CCCC2
16,92 to 93 °C,CCSC1=N[C@@H](c2ccc(OC)cc2)[C@@H](c2ccc(OC)cc2)N1
17,202 to 203 °C,Cc1cccc(C(=O)Nc2c(NC(=O)CCl)ccc3c2C(=O)c2ccccc2C3=O)c1
18,167 to 168 °C,O=c1c(Cl)c(OCc2ccc(Cl)cc2)cnn1-c1ccc(Cl)cc1F
19,193 to 195 °C,CCN(C=CC(=O)c1cccnc1)CC

row,melting point,SMILES
1,155 to 157 °C,CC(C)N1CC(C(=O)c2ccc(Cc3ccc(F)cc3)o2)=C(O)C1=O
2,124 °C,COc1cc(C(=O)c2ccc(CC(=O)O)s2)cc(OC)c1OC
3,211 to 216 °C,O=Cc1ccc2c(c1)C=C(C(=O)O)C(C(F)(F)F)O2 (stereo unspecified)
4,180 to 185 °C,CC(=O)c1c(Sc2cc(Cl)cc(Cl)c2)[nH]c2ccc(Cl)cc12
5,65 to 67 °C,CCOC(=O)CCC(C)Oc1ccc2c(c1)C(N(CC)S(C)(=O)=O)CC(C)(C)O2 (stereo unspecified)
6,90 °C,C=CCOc1ccccc1NS(C)(=O)=O
7,291 °C,CC(C)c1cccc(C(C)C)c1N1C(=O)c2cccc3c(C#N)ccc(c23)C1=O
8,152 to 154 °C,Cc1cccnc1NC(N)=S
9,185 to 186 °C,O=c1oc(-c2ccc(Cl)c(Cl)c2)cc(O)c1SCc1ccccc1
10,146 °C,C=C(C)C(=O)OCCOc1ccc(C(=O)O)cc1
11,130 to 133 °C,CCOCCOC(=O)C(=O)Nc1nc(-c2ccc(OC)cc2)cs1
12,290 to 292 °C,CCCn1c(=O)c2c(nn3cc[nH]c23)n(Cc2ccccc2)c1=O
13,133 °C,CCCc1ccc(-n2cnc(-c3ccc(C#N)cc3)c2)cc1
14,198 to 199 °C,O=C(N[C@H]1CCCNC1=O)c1cc(F)cc(F)c1
15,46 to 47 °C,CC(C)(CO)NCc1ccccc1
16,145 to 149 °C,CS(=O)(=O)Nc1cc(OCCC(=O)O)ccc1Oc1ccccc1
17,112 to 114 °C,COC1(NC(=O)OCc2ccccc2)CNC1=O (stereo unspecified)
18,102 to 130 °C,CC(C)CC(CS)C(=O)NCCCCCCCC(=O)N[C@@H](CCCNC(=N)N)C(=O)O (stereo partly specified)
19,111 to 112 °C,CCOC(=O)C(C)NC(=O)N(N(CCCl)S(C)(=O)=O)S(C)(=O)=O (stereo unspecified)

row,melting point,SMILES
1,168 to 170 °C,O=C1CC2CS(=O)(=O)c3ccccc3C2=NN1c1ccc(Cl)cc1 (stereo unspecified)
2,71 to 73 °C,COCO[C@@H](CCCCC1CCCCC1)CCc1ccc(C(C)(C)C)c(NC(=O)CC2c3ccccc3Oc3ccccc32)c1
3,122 to 125 °C,COc1ccc2cc(N3CCC4(CCN(C)CC4)CC3)ccc2c1
4,46 to 48 °C,CCCCCCNc1ccc(N=O)cc1
5,214 to 215 °C,CCOC(=O)Nc1nc2c(c3c(CCNS(C)(=O)=O)n(C)nc13)CCCC2
6,> 250 °C,Cc1ccc2c(c1)C(=NNC(=N)N)CC2
7,170 to 171 °C,Cc1ccc2ccc3c(c2c1)CC(=O)O3
8,144 to 145 °C,COc1ccc(C[C@H](C[C@H](O)[C@H](Cc2ccccc2)NC(=O)OC(C)(C)C)C(=O)O)c(OC)c1
9,204 to 207 °C,COc1cccc2c1C=C(C(=O)O)C(CC(F)(F)F)O2 (stereo unspecified)
10,190 °C,CCCCC(O)c1nc2c(C(F)(F)F)cccc2c(O)c1C(=O)Nc1nccs1 (stereo unspecified)
11,242 to 244 °C,CN1C(=O)C2(COc3cc4c(cc32)OCCO4)c2c(C(=O)N3CCCC3)cccc21 (stereo unspecified)
12,225 °C,Cc1[nH]c(=S)n(Nc2cccc(Cl)c2)c1-c1ccc(Cl)cc1
13,98 to 99 °C,O=C(CCCO)NCC1c2ccccc2CCc2ccccc21
14,173 to 175 °C,COC(=O)c1ccc(COc2ccc3cc(-c4csc(-c5ccccc5)n4)ccc3c2Br)cc1
15,165 to 166 °C,CCOC(=O)CNC(=O)NCCCSc1nccc(NC(N)=NCC(F)(F)F)n1
16,100 to 102 °C,O=C(O)Cc1cccc(Oc2ccc(Cl)cc2)c1O
17,243 to 245 °C,CCOC(=O)Nc1cc(N2CCN(c3ccc([N+](=O)[O-])cc3)CC2)ccn1
18,192 to 194 °C,O=C(O)c1ccc(CF)cc1
